# Experimental data published in patent US8889874B2, “Imidazolone-chalcone derivatives as potential anticancer agent and process for the preparation thereof” (Council of Scientific and Industrial Research, priority 2010, dated 2014).
# Experiments:
# Assay type in all cases: cell-based, human
# 786-0 (renal) = test: NCI anticancer screen, SRB assay, 48 h
# Protocol: (§1) Some of biological activity studies were carried out at the National Cancer Institute (NCI), Maryland, USA.
# (§2) The compounds were evaluated for anticancer activity against fifty three human cancer cells derived from nine cancer types (leukemia cell line, non-small-cell lung cell line, colon cell line, CNS cell line, melanoma cell line, ovarian cell line, prostate cell line, and breast cancer cell line) as shown in Table 1. For each compound, dose response curves for each cell line were measured at a minimum of five concentrations at 10 fold dilutions. A protocol of 48 h continuous drug exposure was used and a sulforhodamine B (SRB) protein assay was used to estimate cell viability or growth.
# [1] = test system: NCI-H23 (non-small cell lung); test: NCI anticancer screen, SRB assay, 48 h
# Protocol: as §1, §2
# SK-MEL-5 (melanoma) = test: NCI anticancer screen, SRB assay, 48 h
# Protocol: as §1, §2
# KM12 (colon) = test: NCI anticancer screen, SRB assay, 48 h
# Protocol: as §1, §2
# SN12C (renal) = test: NCI anticancer screen, SRB assay, 48 h
# Protocol: as §1, §2
# HS 578T (breast) = test: NCI anticancer screen, SRB assay, 48 h
# Protocol: as §1, §2
# A498 (renal) = test: NCI anticancer screen, SRB assay, 48 h
# Protocol: as §1, §2
# SK-OV-3 (ovarian) = test: NCI anticancer screen, SRB assay, 48 h
# Protocol: as §1, §2
# OVCAR-8 (ovarian) = test: NCI anticancer screen, SRB assay, 48 h
# Protocol: as §1, §2
# MALME-3M (melanoma) = test: NCI anticancer screen, SRB assay, 48 h; conditions: MALME-3M
# Protocol: as §1, §2
# SW-620 (colon) = test: NCI anticancer screen, SRB assay, 48 h
# Protocol: as §1, §2
# SK-MEL-28 (melanoma) = test: NCI anticancer screen, SRB assay, 48 h
# Protocol: as §1, §2
# [2] = test system: K-562 (leukemia cell line); test: NCI anticancer screen, SRB assay, 48 h
# Protocol: as §1, §2
# CAKI-1 (renal) = test: NCI anticancer screen, SRB assay, 48 h
# Protocol: as §1, §2
# [3] = test system: EKVX (non-small cell lung); test: NCI anticancer screen, SRB assay, 48 h
# Protocol: as §1, §2
# [4] = test system: A549/ATCC (non-small cell lung); test: NCI anticancer screen, SRB assay, 48 h
# Protocol: as §1, §2
# SF-539 (CNS) = test: NCI anticancer screen, SRB assay, 48 h
# Protocol: as §1, §2
# SNB-19 (CNS) = test: NCI anticancer screen, SRB assay, 48 h
# Protocol: as §1, §2
# ACHN (renal) = test: NCI anticancer screen, SRB assay, 48 h
# Protocol: as §1, §2
# TD-47D (breast) = test: NCI anticancer screen, SRB assay, 48 h
# Protocol: as §1, §2
# [5] = test system: NCI-H460 (non-small cell lung); test: NCI anticancer screen, SRB assay, 48 h
# Protocol: as §1, §2
# UACC-257 (melanoma) = test: NCI anticancer screen, SRB assay, 48 h
# Protocol: as §1, §2
# CNS cancer cell lines = test: NCI anticancer screen, SRB assay, panel summary; conditions: CNS panel
# Protocol: as §1, §2
# [6] = test system: Non-small cell lung cancer cell lines; test: NCI anticancer screen, SRB assay, panel summary
# Protocol: as §1, §2
# Breast cancer cell lines = test: NCI anticancer screen, SRB assay, panel summary
# Protocol: as §1, §2
# [7] = test system: Melanoma cancer cell lines; test: NCI anticancer screen, SRB assay, panel summary; conditions: Melanoma panel
# Protocol: as §1, §2
# [8] = test system: Leukemia cancer cell lines; test: NCI anticancer screen, SRB assay, panel summary; conditions: Leukemia panel
# Protocol: as §1, §2
# Renal cancer cell lines = test: NCI anticancer screen, SRB assay, panel summary
# Protocol: as §1, §2
# Colon cancer cell lines = test: NCI anticancer screen, SRB assay, panel summary; conditions: Colon panel
# Protocol: as §1, §2
# [9] = test system: Ovarian cancer cell lines; test: NCI anticancer screen, SRB assay, panel summary
# Protocol: as §1, §2
# [10] = 48 h exposure, SRB, read-out: GI50
# [11] = log of concentration in mol/L causing 50% inhibition of net cell growth
# [12] = log of concentration leading to 50% net cell death
# [13] = log of concentration resulting in total inhibition of net cell growth
smiles,measurement,setting,value
"COc1cc(/C=C/C(=O)c2cccc(-n3cc(-c4ccc(Cl)cc4)[nH]c3=O)c2)cc(OC)c1OC [5f, 4-(4-chlorophenyl)-1-3-[(E)-3-(3,4,5-trimethoxyphenyl)-2-propenoyl]phenyl-2,3-dihydro-1H-2-imidazolone]",pGI50 (-log of molar concentration causing 50% inhibition of net cell growth),786-0 (renal),5.67
same,GI50,786-0 (renal); [10],2.14 µM
same,pGI50 (-log of molar concentration causing 50% inhibition of net cell growth),[1],5.45
same,GI50,[1]; [10],3.56 µM
same,pGI50 (-log of molar concentration causing 50% inhibition of net cell growth),SK-MEL-5 (melanoma),5.06
same,GI50,SK-MEL-5 (melanoma); [10],8.7 µM
same,pGI50 (-log of molar concentration causing 50% inhibition of net cell growth),KM12 (colon),5.26
same,GI50,KM12 (colon); [10],5.45 µM
same,pGI50 (-log of molar concentration causing 50% inhibition of net cell growth),SN12C (renal); SN 12C,5.29
same,GI50,"SN12C (renal); SN12C, 48 h exposure, SRB, read-out: GI50",5.14 µM
same,pGI50 (-log of molar concentration causing 50% inhibition of net cell growth),HS 578T (breast),5.22
same,GI50,HS 578T (breast); [10],5.96 µM
same,pGI50 (-log of molar concentration causing 50% inhibition of net cell growth),A498 (renal),4.52
same,GI50,A498 (renal); [10],30.2 µM
same,pGI50 (-log of molar concentration causing 50% inhibition of net cell growth),SK-OV-3 (ovarian),4.50
same,GI50,SK-OV-3 (ovarian); [10],31.4 µM
same,pGI50 (-log of molar concentration causing 50% inhibition of net cell growth),OVCAR-8 (ovarian),5.41
same,GI50,OVCAR-8 (ovarian); [10],3.85 µM
same,pGI50 (-log of molar concentration causing 50% inhibition of net cell growth),MALME-3M (melanoma),4.74
same,GI50,MALME-3M (melanoma); [10],18.1 µM
same,pGI50 (-log of molar concentration causing 50% inhibition of net cell growth),SW-620 (colon),5.76
same,GI50,SW-620 (colon); [10],1.75 µM
same,pGI50 (-log of molar concentration causing 50% inhibition of net cell growth),SK-MEL-28 (melanoma),4.96
same,GI50,SK-MEL-28 (melanoma); [10],10.9 µM
same,pGI50 (-log of molar concentration causing 50% inhibition of net cell growth),[2],5.43
same,GI50,[2]; [10],3.69 µM
same,pGI50 (-log of molar concentration causing 50% inhibition of net cell growth),CAKI-1 (renal),4.81
same,pGI50 (-log of molar concentration causing 50% inhibition of net cell growth),[3],4.62
same,pGI50 (-log of molar concentration causing 50% inhibition of net cell growth),[4],4.07
same,GI50,[4]; [10],85.2 µM
same,pGI50 (-log of molar concentration causing 50% inhibition of net cell growth),SF-539 (CNS),5.46
same,GI50,SF-539 (CNS); [10],3.49 µM
same,pGI50 (-log of molar concentration causing 50% inhibition of net cell growth),SNB-19 (CNS),4.79
same,GI50,SNB-19 (CNS); [10],16.1 µM
same,pGI50 (-log of molar concentration causing 50% inhibition of net cell growth),ACHN (renal),5.14
same,GI50,ACHN (renal); [10],7.17 µM
same,pGI50 (-log of molar concentration causing 50% inhibition of net cell growth),TD-47D (breast),5.18
same,GI50,TD-47D (breast); [10],6.65 µM
same,pGI50 (-log of molar concentration causing 50% inhibition of net cell growth),[5],5.43
same,GI50,[5]; [10],3.74 µM
same,pGI50 (-log of molar concentration causing 50% inhibition of net cell growth),UACC-257 (melanoma),4.76
same,GI50,UACC-257 (melanoma); [10],17.4 µM
same,mean graph midpoint (MG_MID) of Log10 GI50,CNS cancer cell lines; [11],5.08
same,mean graph midpoint (MG_MID) of Log10 LC50,CNS cancer cell lines; [12],4.24
same,mean graph midpoint (MG_MID) of Log10 TGI,CNS cancer cell lines; [13],4.50
same,mean graph midpoint (MG_MID) of Log10 LC50,[6],4.06
same,mean graph midpoint (MG_MID) of Log10 GI50,"[6]; Non-small cell lung panel, log of concentration in mol/L causing 50% inhibition of net cell growth",4.72
same,mean graph midpoint (MG_MID) of Log10 TGI,"[6]; Non-small cell lung panel, log of concentration resulting in total inhibition of net cell growth",4.28
same,mean graph midpoint (MG_MID) of Log10 LC50,Breast cancer cell lines,4.11
same,mean graph midpoint (MG_MID) of Log10 GI50,"Breast cancer cell lines; Breast panel, log of concentration in mol/L causing 50% inhibition of net cell growth",5.18
same,mean graph midpoint (MG_MID) of Log10 TGI,"Breast cancer cell lines; Breast panel, log of concentration resulting in total inhibition of net cell growth",4.38
same,mean graph midpoint (MG_MID) of Log10 GI50,[7]; [11],5.17
same,mean graph midpoint (MG_MID) of Log10 LC50,[7]; [12],4.24
same,mean graph midpoint (MG_MID) of Log10 TGI,[7]; [13],4.56
same,mean graph midpoint (MG_MID) of Log10 GI50,[8]; [11],5.42
same,mean graph midpoint (MG_MID) of Log10 TGI,[8]; [13],4.00
same,mean graph midpoint (MG_MID) of Log10 LC50,Renal cancer cell lines,3.73
same,mean graph midpoint (MG_MID) of Log10 GI50,"Renal cancer cell lines; Renal panel, log of concentration in mol/L causing 50% inhibition of net cell growth",5.15
same,mean graph midpoint (MG_MID) of Log10 TGI,"Renal cancer cell lines; Renal panel, log of concentration resulting in total inhibition of net cell growth",4.55
same,mean graph midpoint (MG_MID) of Log10 GI50,Colon cancer cell lines; [11],5.53
same,mean graph midpoint (MG_MID) of Log10 LC50,Colon cancer cell lines; [12],4.76
same,mean graph midpoint (MG_MID) of Log10 TGI,Colon cancer cell lines; [13],5.15
same,mean graph midpoint (MG_MID) of Log10 LC50,[9],4.22
same,mean graph midpoint (MG_MID) of Log10 GI50,"[9]; Ovarian panel, log of concentration in mol/L causing 50% inhibition of net cell growth",5.26
same,mean graph midpoint (MG_MID) of Log10 TGI,"[9]; Ovarian panel, log of concentration resulting in total inhibition of net cell growth",4.62
